# Measurements: the OligoGym collection
# HELM strings list units from the 5' end as sugar, base in round brackets, then linkage (d deoxyribose, r ribose, m 2'-O-methyl, p phosphodiester). Strings are as the collection lists them; they lack the last nucleoside at the 3' end of the tested compound. [moe] = 2'-O-(2-methoxyethyl) (MOE); [sp] = phosphorothioate linkage; [m5C] = 5-methylcytosine
# Biological target: UBE3A-ATS
# Experiment: mouse, dose not given
# Settings: ASO
row,Substance,3 h FOB score [score 0-7]
1,RNA1{[moe](T)[sp].[moe]([m5C])p.[moe](A)p.[moe](G)p.[moe]([m5C])p.d(A)[sp].d([m5C])[sp].d(T)[sp].d(T)[sp].d(A)[sp].d(G)[sp].d(G)[sp].d(T)[sp].d(A)[sp].d(G)[sp].[moe](T)p.[moe](T)p.[moe]([m5C])[sp].[moe](A)}$$$$ (last 3' nucleoside missing),5
2,RNA1{[moe](T)[sp].[moe]([m5C])p.[moe](A)p.[moe](G)p.d(T)[sp].d(T)[sp].d(A)[sp].d(G)[sp].d(G)[sp].d(T)[sp].d(T)[sp].d(A)[sp].d(G)[sp].d(T)[sp].[moe](G)p.[moe]([m5C])p.[moe](A)p.[moe]([m5C])[sp].[moe](A)}$$$$ (last 3' nucleoside missing),4
3,RNA1{[moe](T)[sp].[moe]([m5C])p.[moe](A)p.[moe](T)[sp].d([m5C])[sp].d(T)[sp].d([m5C])[sp].d(G)[sp].d(G)[sp].d(G)[sp].d(T)[sp].d(A)[sp].[moe](T)p.[moe](A)p.[moe](T)p.[moe](A)[sp].[moe](A)}$$$$ (last 3' nucleoside missing),5.3
4,RNA1{[moe](T)[sp].[moe]([m5C])p.[moe](A)p.[moe](T)p.[moe](G)p.d(T)[sp].d(G)[sp].d([m5C])[sp].d(A)[sp].d(T)[sp].d(A)[sp].d([m5C])[sp].d([m5C])[sp].d([m5C])[sp].d(A)[sp].[moe](G)p.[moe](G)p.[moe](G)[sp].[moe](T)}$$$$ (last 3' nucleoside missing),1
5,RNA1{[moe](T)[sp].[moe]([m5C])p.[moe](A)p.[moe](T)p.[moe](T)p.d(A)[sp].d(T)[sp].d(T)[sp].d([m5C])[sp].d(T)[sp].d([m5C])[sp].d(T)[sp].d(A)[sp].d(G)[sp].d(T)[sp].[moe](G)p.[moe]([m5C])p.[moe]([m5C])[sp].[moe](T)}$$$$ (last 3' nucleoside missing),1
6,RNA1{[moe](T)[sp].[moe]([m5C])p.[moe](A)p.[moe](T)p.[moe]([m5C])[sp].d(T)[sp].d([m5C])[sp].d(G)[sp].d(G)[sp].d(G)[sp].d(T)[sp].d(A)[sp].d(T)[sp].[moe](A)p.[moe](T)p.[moe](A)[sp].[moe](A)}$$$$ (last 3' nucleoside missing),3
7,RNA1{[moe](T)[sp].[moe]([m5C])p.[moe](A)p.[moe](T)p.[moe]([m5C])p.[moe](T)[sp].d([m5C])[sp].d(G)[sp].d(G)[sp].d(G)[sp].d(T)[sp].d(A)[sp].d(T)[sp].d(A)[sp].[moe](T)p.[moe](A)[sp].[moe](A)}$$$$ (last 3' nucleoside missing),2.3
8,RNA1{[moe](T)[sp].[moe]([m5C])p.[moe](A)p.[moe](T)p.[moe]([m5C])p.[moe](T)p.d([m5C])[sp].d(G)[sp].d(G)[sp].d(G)[sp].d(T)[sp].d(A)[sp].d(T)[sp].d(A)[sp].d(T)[sp].d(A)[sp].[moe](A)p.[moe](A)[sp].[moe](T)}$$$$ (last 3' nucleoside missing),2
9,RNA1{[moe](T)[sp].[moe]([m5C])p.[moe](A)p.[moe](T)p.[moe]([m5C])p.d(T)[sp].d([m5C])[sp].d(G)[sp].d(G)[sp].d(G)[sp].d(T)[sp].d(A)[sp].d(T)[sp].d(A)[sp].d(T)[sp].[moe](A)p.[moe](A)p.[moe](A)[sp].[moe](T)}$$$$ (last 3' nucleoside missing),3.3
10,RNA1{[moe](T)[sp].[moe]([m5C])p.[moe](A)p.[moe](T)p.d([m5C])[sp].d(T)[sp].d([m5C])[sp].d(G)[sp].d(G)[sp].d(G)[sp].d(T)[sp].d(A)[sp].d(T)[sp].d(A)[sp].[moe](T)p.[moe](A)p.[moe](A)p.[moe](A)[sp].[moe](T)}$$$$ (last 3' nucleoside missing),4
11,RNA1{[moe](T)[sp].[moe]([m5C])p.[moe](A)p.[moe]([m5C])[sp].d([m5C])[sp].d(A)[sp].d(T)[sp].d(T)[sp].d(T)[sp].d(T)[sp].d(G)[sp].d(A)[sp].[moe]([m5C])p.[moe]([m5C])p.[moe](T)p.[moe](T)[sp].[moe]([m5C])}$$$$ (last 3' nucleoside missing),0.3
12,RNA1{[moe](T)[sp].[moe]([m5C])p.[moe](A)p.[moe]([m5C])p.[moe](A)p.d(T)[sp].d(T)[sp].d(A)[sp].d([m5C])[sp].d([m5C])[sp].d([m5C])[sp].d(A)[sp].d(T)[sp].d([m5C])[sp].d([m5C])[sp].[moe](G)p.[moe](T)p.[moe](T)[sp].[moe]([m5C])}$$$$ (last 3' nucleoside missing),0
13,RNA1{[moe](T)[sp].[moe]([m5C])p.[moe](A)p.[moe]([m5C])p.[moe](T)p.d(G)[sp].d(A)[sp].d(G)[sp].d(T)[sp].d(T)[sp].d(T)[sp].d(T)[sp].d(T)[sp].d(G)[sp].d(T)[sp].[moe](A)p.[moe](G)p.[moe](T)[sp].[moe](T)}$$$$ (last 3' nucleoside missing),3.7
14,RNA1{[moe](T)[sp].[moe]([m5C])p.[moe](A)p.[moe]([m5C])p.[moe]([m5C])[sp].d(A)[sp].d(T)[sp].d(T)[sp].d(T)[sp].d(T)[sp].d(G)[sp].d(A)[sp].d([m5C])[sp].[moe]([m5C])p.[moe](T)p.[moe](T)[sp].[moe]([m5C])}$$$$ (last 3' nucleoside missing),2
15,RNA1{[moe](T)[sp].[moe]([m5C])p.[moe](A)p.[moe]([m5C])p.[moe]([m5C])p.[moe](A)[sp].d(T)[sp].d(T)[sp].d(T)[sp].d(T)[sp].d(G)[sp].d(A)[sp].d([m5C])[sp].d([m5C])[sp].[moe](T)p.[moe](T)[sp].[moe]([m5C])}$$$$ (last 3' nucleoside missing),0.3
16,RNA1{[moe](T)[sp].[moe]([m5C])p.[moe](A)p.[moe]([m5C])p.[moe]([m5C])p.[moe](A)p.d(T)[sp].d(T)[sp].d(T)[sp].d(T)[sp].d(G)[sp].d(A)[sp].d([m5C])[sp].d([m5C])[sp].d(T)[sp].d(T)[sp].[moe]([m5C])p.[moe](T)[sp].[moe](T)}$$$$ (last 3' nucleoside missing),1
17,RNA1{[moe](T)[sp].[moe]([m5C])p.[moe](A)p.[moe]([m5C])p.[moe]([m5C])p.d(A)[sp].d(T)[sp].d(T)[sp].d(T)[sp].d(T)[sp].d(G)[sp].d(A)[sp].d([m5C])[sp].d([m5C])[sp].d(T)[sp].[moe](T)p.[moe]([m5C])p.[moe](T)[sp].[moe](T)}$$$$ (last 3' nucleoside missing),1
18,RNA1{[moe](T)[sp].[moe]([m5C])p.[moe](A)p.[moe]([m5C])p.d([m5C])[sp].d(A)[sp].d(T)[sp].d(T)[sp].d(T)[sp].d(T)[sp].d(G)[sp].d(A)[sp].d([m5C])[sp].d([m5C])[sp].[moe](T)p.[moe](T)p.[moe]([m5C])p.[moe](T)[sp].[moe](T)}$$$$ (last 3' nucleoside missing),2
19,RNA1{[moe](T)[sp].[moe]([m5C])p.[moe](G)p.[moe](G)p.[moe](A)p.d(T)[sp].d(A)[sp].d(T)[sp].d(A)[sp].d(G)[sp].d([m5C])[sp].d(T)[sp].d(T)[sp].d(T)[sp].d(T)[sp].[moe](A)p.[moe]([m5C])p.[moe](A)[sp].[moe](T)}$$$$ (last 3' nucleoside missing),1
20,RNA1{[moe](T)[sp].[moe]([m5C])p.[moe](T)p.[moe](G)p.[moe](G)p.d(A)[sp].d(A)[sp].d(T)[sp].d([m5C])[sp].d(T)[sp].d(T)[sp].d(G)[sp].d(T)[sp].d(A)[sp].d(G)[sp].[moe](A)p.[moe](G)p.[moe](G)[sp].[moe](A)}$$$$ (last 3' nucleoside missing),2.7
21,RNA1{[moe](T)[sp].[moe]([m5C])p.[moe](T)p.[moe](G)p.[moe]([m5C])p.[moe](T)p.d([m5C])[sp].d(A)[sp].d(G)[sp].d(T)[sp].d(T)[sp].d(A)[sp].d(G)[sp].d(G)[sp].d(T)[sp].d(T)[sp].[moe](A)p.[moe](G)[sp].[moe](T)}$$$$ (last 3' nucleoside missing),4
22,RNA1{[moe](T)[sp].[moe]([m5C])p.[moe](T)p.[moe](G)p.[moe]([m5C])p.d(T)[sp].d(A)[sp].d(T)[sp].d(T)[sp].d(G)[sp].d(T)[sp].d(T)[sp].d(G)[sp].d(G)[sp].d(A)[sp].[moe](T)p.[moe](A)p.[moe](T)[sp].[moe]([m5C])}$$$$ (last 3' nucleoside missing),6.5
23,RNA1{[moe](T)[sp].[moe]([m5C])p.[moe](T)p.[moe](G)p.[moe]([m5C])p.d(T)[sp].d([m5C])[sp].d(A)[sp].d(G)[sp].d(T)[sp].d(T)[sp].d(A)[sp].d(G)[sp].d(G)[sp].d(T)[sp].[moe](T)p.[moe](A)p.[moe](G)[sp].[moe](T)}$$$$ (last 3' nucleoside missing),7
24,RNA1{[moe](T)[sp].[moe]([m5C])p.[moe](T)p.[moe](G)p.d([m5C])[sp].d(T)[sp].d([m5C])[sp].d(A)[sp].d(G)[sp].d(T)[sp].d(T)[sp].d(A)[sp].d(G)[sp].d(G)[sp].[moe](T)p.[moe](T)p.[moe](A)p.[moe](G)[sp].[moe](T)}$$$$ (last 3' nucleoside missing),4
25,RNA1{[moe](T)[sp].[moe]([m5C])p.[moe](T)p.[moe](T)p.[moe](A)p.d([m5C])[sp].d(T)[sp].d(G)[sp].d(A)[sp].d(T)[sp].d(T)[sp].d([m5C])[sp].d(A)[sp].d(G)[sp].d([m5C])[sp].[moe]([m5C])p.[moe](A)p.[moe](T)[sp].[moe](T)}$$$$ (last 3' nucleoside missing),4
26,RNA1{[moe](T)[sp].[moe]([m5C])p.[moe](T)p.[moe](T)p.[moe](G)p.d([m5C])[sp].d(T)[sp].d(G)[sp].d(A)[sp].d(T)[sp].d([m5C])[sp].d(A)[sp].d([m5C])[sp].d(A)[sp].d(T)[sp].[moe](T)p.[moe](A)p.[moe]([m5C])[sp].[moe]([m5C])}$$$$ (last 3' nucleoside missing),0
27,RNA1{[moe](T)[sp].[moe]([m5C])p.[moe](T)p.[moe]([m5C])p.[moe](A)p.d(T)[sp].d(G)[sp].d(T)[sp].d(G)[sp].d(T)[sp].d(T)[sp].d(T)[sp].d(T)[sp].d(T)[sp].d(G)[sp].[moe](T)p.[moe](T)p.[moe]([m5C])[sp].[moe]([m5C])}$$$$ (last 3' nucleoside missing),5
